Here are results for six compounds from ChEMBL document CHEMBL1139441, “Design, synthesis, molecular modeling studies, and calpain inhibitory activity of novel alpha-ketoamides incorporating polar residues at the P1'-position” (J Med Chem, 2004).

The term Ki denotes a measure of affinity in units of concentration, obtained from inhibition or displacement. A lower Ki goes with tighter binding.

The assay concerns the target T1, Calpain-1 catalytic subunit (Sus scrofa, UniProt P35750).
T1 sequence (P35750 whole entry): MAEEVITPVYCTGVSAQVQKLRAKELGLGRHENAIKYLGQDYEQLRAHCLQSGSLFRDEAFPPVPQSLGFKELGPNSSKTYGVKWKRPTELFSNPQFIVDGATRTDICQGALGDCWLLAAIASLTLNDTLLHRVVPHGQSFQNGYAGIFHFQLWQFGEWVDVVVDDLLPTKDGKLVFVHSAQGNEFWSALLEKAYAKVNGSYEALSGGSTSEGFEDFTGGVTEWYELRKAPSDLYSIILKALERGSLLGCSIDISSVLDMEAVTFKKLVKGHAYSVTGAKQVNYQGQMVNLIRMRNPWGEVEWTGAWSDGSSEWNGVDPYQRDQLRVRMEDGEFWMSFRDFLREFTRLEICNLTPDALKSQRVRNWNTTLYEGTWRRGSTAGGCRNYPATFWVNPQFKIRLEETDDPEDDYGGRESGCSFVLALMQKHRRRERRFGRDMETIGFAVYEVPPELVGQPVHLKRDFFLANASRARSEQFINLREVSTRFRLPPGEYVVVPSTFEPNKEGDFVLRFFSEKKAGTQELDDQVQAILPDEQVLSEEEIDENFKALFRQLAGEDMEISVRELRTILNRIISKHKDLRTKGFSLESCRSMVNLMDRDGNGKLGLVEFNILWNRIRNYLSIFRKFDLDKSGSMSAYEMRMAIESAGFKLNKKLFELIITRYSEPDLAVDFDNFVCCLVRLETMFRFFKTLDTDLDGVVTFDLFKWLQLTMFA
Put plainly: Binding affinity against porcine erythrocyte calpain I was determined.

`CC(C)CC(NC(=O)OCc1ccccc1)C(=O)N[C@@H](Cc1ccccc1)C(=O)C(=O)N[C@H](Cc1ccccc1)C(=O)O` (stereo partly specified) showed a Ki greater than 430 µM. With `CC(C)CC(NC(=O)OCc1ccccc1)C(=O)N[C@@H](Cc1ccccc1)C(=O)C(=O)N[C@@H](Cc1ccccc1)C(=O)O` (stereo partly specified) the figure was 0.83 µM; with `CC(C)CC(NC(=O)OCc1ccccc1)C(=O)N[C@@H](Cc1ccccc1)C(=O)C(=O)NNCc1ccccc1` (stereo partly specified), 0.0047 µM; with `COC(=O)[C@H](Cc1ccccc1)NC(=O)C(=O)[C@H](Cc1ccccc1)NC(=O)C(CC(C)C)NC(=O)OCc1ccccc1` (stereo partly specified), 0.68 µM. The compound `CC(C)CC(NC(=O)OCc1ccccc1)C(=O)N[C@@H](Cc1ccccc1)C(=O)C(=O)NCCc1ccccc1` (stereo partly specified) came in with a Ki of 0.054 µM. The result for `COC(=O)[C@@H](Cc1ccccc1)NC(=O)C(=O)[C@H](Cc1ccccc1)NC(=O)C(CC(C)C)NC(=O)OCc1ccccc1` (stereo partly specified) reads 0.94 µM.
